PubChem BioAssay (NCI)
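Cells were grown in 96-well plates and exposed to each compound for 48 hours at five concentrations; endpoints were interpolated linearly between bracketing concentrations, or set to the highest concentration if not reached. GI50: concentration for 50% inhibition of growth. TGI is the concentration that stops growth completely.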 Where a SMILES comes first, the peptide text is derived from it. [ ]: non-standard residue; d: D form. The star is where a group is joined. Ac5c = NC1(C(=O)O)CCCC1; Cbz = O=C(OCc1ccccc1)*; Boc = CC(C)(C)OC(=O)*; tBu = CC(C)(C)*

How the values were obtained:
Assay in all cases: NCI anticancer screen, dose series, 48 h
A498 renal = test system: A498 renal
A549 NSCLC = test system: A549 NSCLC
ACHN renal = test system: ACHN renal
BT-549 breast = test system: BT-549 breast
CAKI-1 renal = test system: CAKI-1 renal
COLO 205 colon = test system: COLO 205 colon
DU-145 prostate = test system: DU-145 prostate
EKVX NSCLC = test system: EKVX NSCLC
HCC-2998 colon = test system: HCC-2998 colon
HCT-15 colon = test system: HCT-15 colon
HL-60(TB) leukemia = test system: HL-60(TB) leukemia
HOP-92 NSCLC = test system: HOP-92 NSCLC
HS 578T breast = test system: HS 578T breast
KM12 colon = test system: KM12 colon
LOX IMVI melanoma = test system: LOX IMVI melanoma
MALME-3M melanoma = test system: MALME-3M melanoma
MDA-MB-231 breast = test system: MDA-MB-231 breast
NCI-H226 lung = test system: NCI-H226 lung
NCI-H23 lung = test system: NCI-H23 lung
NCI-H460 lung = test system: NCI-H460 lung
OVCAR-3 ovarian = test system: OVCAR-3 ovarian
OVCAR-8 ovarian = test system: OVCAR-8 ovarian
PC-3 prostate = test system: PC-3 prostate
SF-295 CNS = test system: SF-295 CNS
SK-MEL-28 melanoma = test system: SK-MEL-28 melanoma
SK-MEL-5 melanoma = test system: SK-MEL-5 melanoma
SK-OV-3 ovarian = test system: SK-OV-3 ovarian
SN12C renal = test system: SN12C renal
SW-620 colon = test system: SW-620 colon
T-47D breast = test system: T-47D breast
TK-10 renal = test system: TK-10 renal
UACC-257 melanoma = test system: UACC-257 melanoma
786-0 renal = test system: 786-0 renal
CCRF-CEM leukemia = test system: CCRF-CEM leukemia
HCT-116 colon = test system: HCT-116 colon
HOP-62 NSCLC = test system: HOP-62 NSCLC
HT29 colon = test system: HT29 colon
IGROV1 ovarian = test system: IGROV1 ovarian
K-562 leukemia = test system: K-562 leukemia
M14 melanoma = test system: M14 melanoma
MCF7 breast = test system: MCF7 breast
MDA-MB-435 = test system: MDA-MB-435
MOLT-4 leukemia = test system: MOLT-4 leukemia
NCI-H522 lung = test system: NCI-H522 lung
NCI/ADR-RES ovarian = test system: NCI/ADR-RES ovarian
OVCAR-4 ovarian = test system: OVCAR-4 ovarian
OVCAR-5 ovarian = test system: OVCAR-5 ovarian
RPMI-8226 leukemia = test system: RPMI-8226 leukemia
SF-268 CNS = test system: SF-268 CNS
SF-539 CNS = test system: SF-539 CNS
SK-MEL-2 melanoma = test system: SK-MEL-2 melanoma
SNB-19 CNS = test system: SNB-19 CNS
SNB-75 CNS = test system: SNB-75 CNS
U251 CNS = test system: U251 CNS
UACC-62 melanoma = test system: UACC-62 melanoma
UO-31 renal = test system: UO-31 renal

CCCCCCCCCCCCCCCc1ccc(C(=O)C[n+]2ccccc2)cc1
GI50 (A498 renal): 1100 nM
TGI (A498 renal): 8.33 µM
GI50 (A549 NSCLC): 0.731 µM
TGI (A549 NSCLC): 2.03 µM
GI50 (ACHN renal): 1.01 µM
TGI (ACHN renal): 2.22 µM
GI50 (BT-549 breast): 2.88 µM
TGI (BT-549 breast): 12.3 µM
GI50 (CAKI-1 renal): 1.01 µM
TGI (CAKI-1 renal): 3.45 µM
GI50 (COLO 205 colon): 0.475 µM
TGI (COLO 205 colon): 1.67 µM
GI50 (DU-145 prostate): 1.2 µM
TGI (DU-145 prostate): 2.44 µM
GI50 (EKVX NSCLC): 1.82 µM
TGI (EKVX NSCLC): 8.72 µM
GI50 (HCC-2998 colon): 1.27 µM
TGI (HCC-2998 colon): 2.55 µM
GI50 (HCT-15 colon): 1.03 µM
TGI (HCT-15 colon): 2.56 µM
GI50 (HL-60(TB) leukemia): 531 nM
TGI (HL-60(TB) leukemia): 2520 nM
GI50 (HOP-92 NSCLC): 295 nM
TGI (HOP-92 NSCLC): 3.93 µM
GI50 (HS 578T breast): 1.75 µM
TGI (HS 578T breast): 4.25 µM
GI50 (KM12 colon): 0.523 µM
TGI (KM12 colon): 1.59 µM
GI50 (LOX IMVI melanoma): 348 nM
TGI (LOX IMVI melanoma): 1190 nM
GI50 (MALME-3M melanoma): 1.75 µM
TGI (MALME-3M melanoma): 4.95 µM
GI50 (MDA-MB-231 breast): 886 nM
TGI (MDA-MB-231 breast): 2.23 µM
GI50 (NCI-H226 lung): 4.15 µM
TGI (NCI-H226 lung): > 100 µM
GI50 (NCI-H23 lung): 0.502 µM
TGI (NCI-H23 lung): 1.79 µM
GI50 (NCI-H460 lung): 0.546 µM
TGI (NCI-H460 lung): 1.78 µM
GI50 (OVCAR-3 ovarian): 1790 nM
TGI (OVCAR-3 ovarian): 3.64 µM
GI50 (OVCAR-8 ovarian): 1.22 µM
TGI (OVCAR-8 ovarian): 2.55 µM
GI50 (PC-3 prostate): 1.23 µM
TGI (PC-3 prostate): 3.77 µM
GI50 (SF-295 CNS): 0.653 µM
TGI (SF-295 CNS): 14.2 µM
GI50 (SK-MEL-28 melanoma): 1.21 µM
TGI (SK-MEL-28 melanoma): 2.99 µM
GI50 (SK-MEL-5 melanoma): 1.44 µM
TGI (SK-MEL-5 melanoma): 3.93 µM
GI50 (SK-OV-3 ovarian): 1.71 µM
TGI (SK-OV-3 ovarian): 3.34 µM
GI50 (SN12C renal): 0.756 µM
TGI (SN12C renal): 2.13 µM
GI50 (SW-620 colon): 0.394 µM
TGI (SW-620 colon): 1.54 µM
GI50 (T-47D breast): 1.38 µM
TGI (T-47D breast): 3.77 µM
GI50 (TK-10 renal): 1.12 µM
TGI (TK-10 renal): 2.72 µM
GI50 (UACC-257 melanoma): 1.7 µM
TGI (UACC-257 melanoma): 3.51 µM

COC(=O)C1(NC(=O)C(Cc2ccccc2)NC(=O)C(NC(=O)C(CCCCNC(=O)OC(C)(C)C)NC(=O)C(Cc2c[nH]c3ccccc23)NC(=O)C(Cc2ccccc2)NC(=O)OCc2ccccc2)C(C)OC(C)(C)C)CCCC1 (stereo unspecified) (Cbz-FWK(Boc)T(tBu)F[Ac5c]-OMe; configuration not given here)
TGI (HOP-92 NSCLC): > 100 µM
TGI (NCI-H226 lung): > 100 µM
TGI (NCI-H23 lung): > 100 µM
TGI (UACC-257 melanoma): > 100 µM

CC(OC(C)(C)C)C(NC(=O)C(CCCCNC(=O)OC(C)(C)C)NC(=O)C(Cc1c[nH]c2ccccc12)NC(=O)C(N)Cc1ccccc1)C(=O)NC(Cc1ccccc1)C(=O)NC1(C(=O)O)CCCC1 (stereo unspecified) (H-FWK(Boc)T(tBu)F[Ac5c]-OH; configuration not given here)
TGI (HOP-92 NSCLC): > 100 µM
TGI (NCI-H226 lung): > 100 µM
TGI (NCI-H23 lung): > 100 µM
TGI (UACC-257 melanoma): > 100 µM

OCCC#Cc1ccccc1C#Cc1ccccc1
GI50 (786-0 renal): 16.1 µM
TGI (786-0 renal): 31.3 µM
GI50 (A549 NSCLC): 36.3 µM
TGI (A549 NSCLC): 83.2 µM
GI50 (ACHN renal): 17.2 µM
TGI (ACHN renal): 36.4 µM
GI50 (BT-549 breast): 8.98 µM
TGI (BT-549 breast): 22.3 µM
GI50 (CAKI-1 renal): 12.6 µM
TGI (CAKI-1 renal): 25.2 µM
GI50 (CCRF-CEM leukemia): 25.9 µM
TGI (CCRF-CEM leukemia): > 100 µM
GI50 (COLO 205 colon): 19.4 µM
TGI (COLO 205 colon): 38 µM
GI50 (DU-145 prostate): 12.5 µM
TGI (DU-145 prostate): 26.5 µM
GI50 (EKVX NSCLC): 11.3 µM
TGI (EKVX NSCLC): 24.3 µM
GI50 (HCC-2998 colon): 19.1 µM
TGI (HCC-2998 colon): 45 µM
GI50 (HCT-116 colon): 17.5 µM
TGI (HCT-116 colon): 33.6 µM
GI50 (HCT-15 colon): 11.6 µM
TGI (HCT-15 colon): 24.8 µM
GI50 (HOP-62 NSCLC): 18.7 µM
TGI (HOP-62 NSCLC): 33.9 µM
GI50 (HOP-92 NSCLC): 3480 nM
TGI (HOP-92 NSCLC): 16.7 µM
GI50 (HS 578T breast): 11.9 µM
TGI (HS 578T breast): 33.3 µM
GI50 (HT29 colon): 18 µM
TGI (HT29 colon): > 100 µM
GI50 (IGROV1 ovarian): 33.4 µM
TGI (IGROV1 ovarian): > 100 µM
GI50 (K-562 leukemia): 11 µM
TGI (K-562 leukemia): > 100 µM
GI50 (KM12 colon): 7.18 µM
TGI (KM12 colon): 17.2 µM
GI50 (M14 melanoma): 16 µM
TGI (M14 melanoma): 31.6 µM
GI50 (MALME-3M melanoma): 14 µM
TGI (MALME-3M melanoma): 27.1 µM
GI50 (MCF7 breast): 22.7 µM
TGI (MCF7 breast): 46.5 µM
GI50 (MDA-MB-231 breast): 3410 nM
TGI (MDA-MB-231 breast): 16.1 µM
GI50 (MDA-MB-435): 11.4 µM
TGI (MDA-MB-435): 23.5 µM
GI50 (MOLT-4 leukemia): 9.84 µM
TGI (MOLT-4 leukemia): 51.9 µM
GI50 (NCI-H226 lung): 15.2 µM
TGI (NCI-H226 lung): 33.2 µM
GI50 (NCI-H23 lung): 18.2 µM
TGI (NCI-H23 lung): 39.9 µM
GI50 (NCI-H460 lung): 21.5 µM
TGI (NCI-H460 lung): 50.7 µM
GI50 (NCI-H522 lung): 32.1 µM
TGI (NCI-H522 lung): > 100 µM
GI50 (NCI/ADR-RES ovarian): 17.9 µM
TGI (NCI/ADR-RES ovarian): 53.6 µM
GI50 (OVCAR-4 ovarian): 24.1 µM
TGI (OVCAR-4 ovarian): 72.4 µM
GI50 (OVCAR-5 ovarian): 16.9 µM
TGI (OVCAR-5 ovarian): 50.7 µM
GI50 (OVCAR-8 ovarian): 30.4 µM
TGI (OVCAR-8 ovarian): 66.9 µM
GI50 (PC-3 prostate): 13.7 µM
TGI (PC-3 prostate): 35.5 µM
GI50 (RPMI-8226 leukemia): 12.4 µM
TGI (RPMI-8226 leukemia): 41.8 µM
GI50 (SF-268 CNS): 16.5 µM
TGI (SF-268 CNS): 33.9 µM
GI50 (SF-295 CNS): 5.47 µM
TGI (SF-295 CNS): 19.8 µM
GI50 (SF-539 CNS): 12.7 µM
TGI (SF-539 CNS): 27 µM
GI50 (SK-MEL-2 melanoma): 40.6 µM
TGI (SK-MEL-2 melanoma): > 100 µM
GI50 (SK-MEL-28 melanoma): 21.7 µM
TGI (SK-MEL-28 melanoma): 60.9 µM
GI50 (SK-MEL-5 melanoma): 12 µM
TGI (SK-MEL-5 melanoma): 25.3 µM
GI50 (SK-OV-3 ovarian): 17.3 µM
TGI (SK-OV-3 ovarian): 39.4 µM
GI50 (SN12C renal): 12.5 µM
TGI (SN12C renal): 26.8 µM
GI50 (SNB-19 CNS): 28.1 µM
TGI (SNB-19 CNS): > 100 µM
GI50 (SNB-75 CNS): 19.8 µM
TGI (SNB-75 CNS): 53.4 µM
GI50 (SW-620 colon): 13.4 µM
TGI (SW-620 colon): 28.2 µM
GI50 (T-47D breast): 39.3 µM
TGI (T-47D breast): > 100 µM
GI50 (TK-10 renal): 11.3 µM
TGI (TK-10 renal): 23.4 µM
GI50 (U251 CNS): 35 µM
TGI (U251 CNS): > 100 µM
GI50 (UACC-257 melanoma): 22.4 µM
TGI (UACC-257 melanoma): 45.9 µM
GI50 (UACC-62 melanoma): 11.9 µM
TGI (UACC-62 melanoma): 24.4 µM
GI50 (UO-31 renal): 34.3 µM
TGI (UO-31 renal): > 100 µM
